The record followed here is BindingDB's records for doi:10.1016/s0960-894x(98)00237-6 (Fujisawa Pharmaceutical, 1999).

The nature of assay [1]: Compound was evaluated for the inhibition of […] I-CCK-8 binding at Cholecystokinin type B receptor on guinea pig cerebral cortical membranes.
A short description of assay [2]: Compound was evaluated for the inhibition of […] I-CCK-8 binding at CCK-B receptor Cholecystokinin type B receptor cerebral cortical membranes.

On to `CCc1cccc2c1N(CC(=O)N1CC3CCC(CC3)C1)C(=O)C(NC(=O)Nc1cccc(-c3nnn[nH]3)c1)N=C2c1ccccc1F` (stereo not drawn) [1-[1-[2-(3-Aza-bicyclo[3.2.2]non-3-yl)-2-oxo-ethyl]-9-ethyl-5-(2-fluoro-phenyl)-2-oxo-2,3-dihydro-1H-benzo[e][1,4]diazepin-3-yl]-3-[3-(1H-tetrazol-5-yl)-phenyl]-urea], for which, in assay [1], the IC50 (usually the point on the concentration scale where inhibition reaches its midpoint) was determined as 0.81 nM.
The same measure, in the same setting: then `O=C(Nc1cccc(-c2nnn[nH]2)c1)NC1N=C(c2ccccc2F)c2ccccc2N(CC(=O)N2CC3CCC(CC3)C2)C1=O` (stereo not drawn) [1-[1-[2-(3-Aza-bicyclo[3.2.2]non-3-yl)-2-oxo-ethyl]-5-(2-fluoro-phenyl)-2-oxo-2,3-dihydro-1H-benzo[e][1,4]diazepin-3-yl]-3-[3-(1H-tetrazol-5-yl)-phenyl]-urea], with 0.087 nM.
`O=C(Nc1cccc(-c2nnn[nH]2)c1)NC1N=C(c2ccccc2F)c2cccc(Cl)c2N(CC(=O)N2CC3CCC(CC3)C2)C1=O` (stereo not drawn) [1-[1-[2-(3-Aza-bicyclo[3.2.2]non-3-yl)-2-oxo-ethyl]-9-chloro-5-(2-fluoro-phenyl)-2-oxo-2,3-dihydro-1H-benzo[e][1,4]diazepin-3-yl]-3-[3-(1H-tetrazol-5-yl)-phenyl]-urea]: the IC50 in assay [2] turned out to be 0.66 nM.
